According to patent US10202382B2 (Purdue Pharma L.P., priority 2014, dated 2019):

Target: T1, μ-opioid receptor (Homo sapiens, UniProt P35372)
T1 construct: expressed in transfected cells; host or cells: HEK-293
Assay: μ-opioid receptor [35S]GTPγS functional assay
Format: biochemical
Settings: HEK-293 cells; for Emax: maximal effect relative to DAMGO
Experimental: [^35S]GTPγS functional assays were conducted using freshly thawed μ-receptor membranes prepared in-house from a cell line expressing recombinant μ opioid receptor in a HEK-293, CHO or U-2 OS cell background, or purchased from a commercial source (Perkin Elmer, Shelton, Conn.; or DiscovRx, Fremont, Calif.). Assay reactions were prepared by sequentially adding the following reagents to binding buffer (100 mM NaCl, 10 mM MgCl2, 20 mM HEPES, pH 7.4) on ice (final concentrations indicated): membrane protein (0.026 mg/mL), saponin ([…]), GDP ([…]) and [^35S]GTPγS (0.20 nM; Perkin Elmer, Shelton, Conn.). The prepared membrane solution (190 μl/well) was transferred to 96-shallow well polypropylene plates containing 10 μl of 20× concentrated stock solutions of the agonist [D-Ala^2, N-methyl-Phe^4 Gly-ol^5]-enkephalin (DAMGO) prepared in dimethyl sulfoxide (DMSO). Plates were incubated for 30 min at about 25° C. with shaking. Reactions were terminated by rapid filtration onto 96-well Unifilter GF/B filter plates (Perkin Elmer, Shelton, Conn.) using a 96-well tissue harvester (Perkin Elmer, Shelton, Conn.) followed by three filtration washes with 200 μl of ice-cold wash buffer (10 mM NaH2PO4, 10 mM Na2HPO4, pH 7.4). Filter plates were subsequently dried at 50° C. for 2-3 hours. BetaScint scintillation cocktail (Perkin Elmer, Shelton, Conn.) was added (50 μl/well) and plates were counted using a Packard Top-Count for 1 min/well. Data were analyzed using the sigmoidal dose-response curve fitting functions in GraphPad PRISM v. 3.0, or an in-house function for non-linear, sigmoidal dose-response curve-fitting.
μ GTP EC50 is the concentration of a compound providing 50% of the maximal response for the compound at a μ-opioid receptor.
μ GTP Emax (%) is the maximal effect elicited by a compound relative to the effect elicited by DAMGO, a standard agonist. Generally, the μ GTP Emax (%) value measures the efficacy of a compound to treat or prevent pain or other Conditions.
In TABLE 1, activity response of certain Compounds of the Invention to the μ-opioid receptors was determined as described above for functional assays using HEK-293 cells.

[1] = membranes with recombinant μ opioid receptor
[2] = cell prints μM under an nM head

T1 sequence (P35372 whole entry, species assumed): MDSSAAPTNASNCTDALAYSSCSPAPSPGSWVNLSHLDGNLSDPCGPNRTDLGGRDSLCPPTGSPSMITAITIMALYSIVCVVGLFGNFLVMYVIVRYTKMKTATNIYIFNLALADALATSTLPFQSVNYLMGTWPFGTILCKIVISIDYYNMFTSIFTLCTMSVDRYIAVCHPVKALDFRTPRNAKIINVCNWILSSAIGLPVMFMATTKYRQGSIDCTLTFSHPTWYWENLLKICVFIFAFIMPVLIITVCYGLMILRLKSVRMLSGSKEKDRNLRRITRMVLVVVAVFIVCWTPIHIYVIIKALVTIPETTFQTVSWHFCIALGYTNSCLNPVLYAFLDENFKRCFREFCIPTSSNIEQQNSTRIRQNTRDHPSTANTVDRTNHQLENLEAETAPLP

SMILES | Emax | EC50 [1] | EC50 [2]
CN1CC[C@]23CCN(C(=O)C4CC4)C[C@H]2[C@H]1Cc1ccc(O)cc13 [Compound 31, Cyclopropyl ((4aS,5R,10bS)-9-hydroxy-13-methyl-1,2,4,4a,5,6-hexahydro-3H-5,10b-(epiminoethano)benzo[f]isoquinolin-3-yl)methanone] | 49 ± 1.53% | 0.725 ± 0.0265 µM | 
CN1CC[C@]23CCN(Cc4ccc(O)cc4)C[C@H]2[C@H]1Cc1ccc(O)cc13 [Compound 23, (4aS,5R,10bR)-3-(4-hydroxybenzyl)-13-methyl-2,3,4,4a,5,6-hexahydro-1H-5,10b-(epiminoethano)benzo[f]isoquinolin-9-ol] | 51.7 ± 2.85% | 1.59 ± 0.0616 µM | 
CN1CC[C@]23CC(=O)N(Cc4ccccc4)C[C@H]2[C@H]1Cc1ccc(O)cc13 [Compound 28] | 58.7 ± 4.84% | 2.73 ± 0.392 µM | 
COc1ccc(CN2C[C@H]3[C@H]4Cc5ccc(OC)cc5[C@@]3(CCN4C)CC2=O)cc1 [Compound 8, (4aS,5R,10bS)-9-methoxy-3-(4-methoxybenzyl)-13-methyl-4,4a,5,6-tetrahydro-1H-5,10b-(epiminoethano)benzo[f]isoquinolin-2(3H)-one] | 70.3 ± 1.67% |  | > 20 µM
COc1ccc2c(c1)[C@]13CCN(C)[C@H](C2)[C@@H]1CNC(=O)C3 [Compound 11, (4aS,5R,10bS)-9-methoxy-13-methyl-4,4a,5,6-tetrahydro-1H-5,10b-(epiminoethano)benzo[f]isoquinolin-2(3H)-one] | 57.8 ± 2.68% |  | > 20 µM
CN1CC[C@]23CC(=O)N(CC4CC4)C[C@H]2[C@H]1Cc1ccc(O)cc13 [Compound 26] | 67.7 ± 1.2% | 0.881 ± 0.183 µM | 
COc1ccc(CN2CC[C@]34CCN(C)[C@H](Cc5ccc(OC)cc53)[C@@H]4C2)cc1 [Compound 9, (4aS,5R,10bR)-9-methoxy-3-(4-methoxybenzyl)-13-methyl-2,3,4,4a,5,6-hexahydro-1H-5,10b-(epiminoethano)benzo[f]isoquinoline] | 28.7 ± 1.45% |  | > 20 µM
CN1CC[C@]23CCN(C(=O)Nc4ccccc4)C[C@H]2[C@H]1Cc1ccc(O)cc13 [Compound 33, (4aS,5R,10bS)-9-hydroxy-13-methyl-N-phenyl-1,2,4,4a,5,6-hexahydro-3H-5,10b-(epiminoethano)benzo[f]isoquinoline-3-carboxamide] | 54.7 ± 8.35% | 0.152 ± 0.00519 µM | 
CC(=O)N1CC[C@]23CCN(C)[C@H](Cc4ccc(O)cc42)[C@@H]3C1 [Compound 29, 1-((4aS,5R,10bS)-9-hydroxy-13-methyl-1,2,4,4a,5,6-hexahydro-3H-5,10b-(epiminoethano)benzo[f]isoquinolin-3-yl)ethan-1-one] | 64.7 ± 4.63% | 0.298 ± 0.0278 µM | 
CN1CC[C@]23CCN(CC4CC4)C[C@H]2[C@H]1Cc1ccc(O)cc13 [Compound 27, (4aS,5R,10bR)-3-(cyclopropylmethyl)-13-methyl-2,3,4,4a,5,6-hexahydro-1H-5,10b-(epiminoethano)benzo[f]isoquinolin-9-ol] | 44.4 ± 2.5% | 14 ± 1.94 µM | 
CN1CC[C@]23CC(=O)NC[C@H]2[C@H]1Cc1ccc(O)cc13 [Compound 24, (4aS,5R,10bS)-9-hydroxy-13-methyl-4,4a,5,6-tetrahydro-1H-5,10b-(epiminoethano)benzo[f]isoquinolin-2(3H)-one] | 52 ± 2.08% | 1.38 ± 0.104 µM | 
CN1CC[C@]23CCNC[C@H]2[C@H]1Cc1ccc(O)cc13 [Compound 25, (4aS,5R,10bR)-13-methyl-2,3,4,4a,5,6-hexahydro-1H-5,10b-(epiminoethano)benzo[f]isoquinolin-9-ol] | 43.7 ± 1.45% | 8.36 ± 0.929 µM | 
CC(C)C(=O)N1CC[C@]23CCN(C)[C@H](Cc4ccc(O)cc42)[C@@H]3C1 [Compound 30, 1-((4aS,5R,10bS)-9-hydroxy-13-methyl-1,2,4,4a,5,6-hexahydro-3H-5,10b-(epiminoethano)benzo[f]isoquinolin-3-yl)-2-methylpropan-1-one] | 37.2 ± 1.18% | 0.733 ± 0.0407 µM | 
CN1CC[C@]23CCN(C)[C@H](Cc4ccc(O)cc42)[C@@H]3C1 [Compound 32, (4aS,5R,10bR)-3,13-dimethyl-2,3,4,4a,5,6-hexahydro-1H-5,10b-(epiminoethano)benzo[f]isoquinolin-9-ol] | 71.7 ± 3.18% | 1.07 ± 0.14 µM | 
